# Patent US20050220895A1, “Use of gallium to treat inflammatory arthritis” (priority 2003, published 2005)
# Entries after “also recorded” stand apart in the source; their conditions may differ.
# Experiments:
# [1] = test system: male Lewis rats with streptococcal (PGPS) cell wall induced arthritis; assay: Streptococcal cell wall (PGPS)-induced chronic arthritis model; assay type: in vivo; conditions: 100, 200 and 300 mg/kg daily oral gavage, 35 days
# [2] = Serum gallium levels, chronic arthritis study; assay type: in vivo, rat; conditions: Study PG-PS/TT-1, 100 mg/kg, 1% MC suspension, 35 days, pretreatment 13 days, fasted, 1 hour post-dosing
# Method: (§1) Materials and methods: Male Lewis rats (N=12/group) with developing streptococcal (PGPS) cell wall induced arthritis were treated with gallium maltolate (100, 200 or 300 mg/kg, po, qd) or Cyclosporin A (CSA, 5-20 mg/kg) prophylactically beginning 1 day after intra-articular injection of PGPS into the ankles (day −14) and continued for 14 days at which time systemic reactivation was induced by intravenous (iv) injection of PGPS (day 0). Treatment was continued for another 14 days and animals were reactivated a second time (day 14). Following an additional week of treatment, rats were terminated for a total of […] of dosing. Rats were weighed on days (−)13, (−)7, 0, 8, 14 and 21, at which time, dose volumes were adjusted. Right ankle caliper measurements were taken on days 0, 2, 4, 6, 8, 10, 12, 14, 16, 18, 20 and 21. […] All rats had terminal blood samples obtained for PK sampling. Scoring of Joints: PGPS arthritic ankles are given scores of 0-5 (normal to severe) for inflammation, pannus, cartilage damage, bone resorption and periosteal bone proliferation according criteria similar to the acute arthritis study. The primary endpoint is periarticular inflammation and bone resorption as quantitated by ankle caliper measurements and histopathologic evaluation of ankles (scoring of joints).
# The following data was compiled from the above described model studies. […]
# [3] = Serum gallium levels, acute arthritis studies; assay type: in vivo, rat; conditions: for Mean Serum Gallium Concentration: 14 days, 1 hour post-dosing
# Method: Materials and methods: For the adjuvant-induced acute arthritis model, male Lewis rats (7 per group for Gallium Maltolate, 4 per group for normal controls and dexamethasone-treated controls) were injected with 100 μl of Freund's complete adjuvant/lipoidal amine (FCA/LA) subcutaneously at the base of the tail on study day 0 under anesthesia. The rapid onset (within 7 days) of arthritic symptoms in this model includes ankle inflammation, bone resorption, and mild cartilage destruction. […] The dexamethasone-treated control animals were administered a daily oral dose of dexamethasone (0.1 mg/kg). Body weights were measured regularly during the course of the study to track the effect of the drugs on the weight loss induced by the developing adjuvant disease, and dose volumes were adjusted accordingly. Prior to the onset of swelling, but after the establishment of systemic disease (about 7 days after adjuvant injection), caliper measurements were made of ankle joints. Ankles were measured every day until 14 days post-adjuvant injection when the rats were anesthetized and euthanized. Serum was harvested one hour after final dosing for gallium quantitation. Hind paws, liver and spleen were weighed, fixed and processed for histopathologic evaluation. Adjuvant arthritic ankles were given scores of 0-5 (0=normal; 5=severe) for inflammation and bone resorption. Splenic changes of inflammation, increased extramedullary hematopoiesis and lymphoid atrophy were scored 0-5 using criteria similar to those used for scoring of inflammation. The primary endpoint is periarticular inflammation and bone resorption as quantitated by ankle caliper measurements and histopathologic evaluation of ankles (scoring of joints). Secondary endpoints include body weight change and the inhibition of splenomegaly and hepatomegaly.
# The following data was compiled from the above described model studies. All sampling was done 1 hour post-dosing.
# [4] = test system: male Lewis rats with streptococcal (PGPS) cell wall induced arthritis; assay: Streptococcal cell wall (PGPS)-induced chronic arthritis model; assay type: in vivo
# Method: (§2) Two preclinical animal models were tested for oral gallium efficacy in inflammatory polyarthritis; adjuvant-induced acute arthritis and streptococcal cell wall-induced chronic arthritis, respectively. Male Lewis rats were used in both studies. The models are described in detail in Bendele et al. (1999) Toxicologic Pathology 27(1):134-142 and Bendele (2001) J. Musculoskel. Neuron. Interact. 1(4):377-385.
# This is a multiple reactivated peptidoglycan-polysaccharide (PGPS)-induced arthritis model. The rapid onset (4-5 days) of arthritic symptoms in this model includes ankle inflammation, bone resorption, mild cartilage destruction.
# as §1
# [5] = test system: male Lewis rats with adjuvant-induced acute arthritis; assay: Adjuvant-induced acute arthritis model; assay type: in vivo
# Method: as §2
# Materials and methods: For the adjuvant-induced acute arthritis model, male Lewis rats (7 per group for Gallium Maltolate, 4 per group for normal controls and dexamethasone-treated controls) were injected with 100 μl of Freund's complete adjuvant/lipoidal amine (FCA/LA) subcutaneously at the base of the tail on study day 0 under anesthesia. The rapid onset (within 7 days) of arthritic symptoms in this model includes ankle inflammation, bone resorption, and mild cartilage destruction. Prophylactic treatment was initiated by dosing with control vehicle or Gallium Maltolate (100 or 300 mg/kg) by daily oral gavage, from seven days prior to adjuvant injection until termination. The dexamethasone-treated control animals were administered a daily oral dose of dexamethasone (0.1 mg/kg). Body weights were measured regularly during the course of the study to track the effect of the drugs on the weight loss induced by the developing adjuvant disease, and dose volumes were adjusted accordingly. Prior to the onset of swelling, but after the establishment of systemic disease (about 7 days after adjuvant injection), caliper measurements were made of ankle joints. Ankles were measured every day until 14 days post-adjuvant injection when the rats were anesthetized and euthanized. Serum was harvested one hour after final dosing for gallium quantitation. Hind paws, liver and spleen were weighed, fixed and processed for histopathologic evaluation. Adjuvant arthritic ankles were given scores of 0-5 (0=normal; 5=severe) for inflammation and bone resorption. Splenic changes of inflammation, increased extramedullary hematopoiesis and lymphoid atrophy were scored 0-5 using criteria similar to those used for scoring of inflammation. The primary endpoint is periarticular inflammation and bone resorption as quantitated by ankle caliper measurements and histopathologic evaluation of ankles (scoring of joints). Secondary endpoints include body weight change and the inhibition of splenomegaly and hepatomegaly.
# [6] = 100 or 300 mg/kg daily oral gavage, both doses
smiles,measurement,setting,value
"Cc1occc(=O)c1[O-].Cc1occc(=O)c1[O-].Cc1occc(=O)c1[O-].[Ga+3] [gallium maltolate, tris(3-hydroxy-2-methyl-4H-pyran-4-onato) gallium]",safety / signs of toxicity,[1],safe and showed no signs of toxicity; also recorded: safe with no signs of toxicity
same,Mean Serum Gallium Concentration,[2],2050 ng/mL
same,serum gallium levels attained,[3]; 100 or 300 mg/kg daily oral gavage,dose-dependent
same,Mean Serum Gallium Concentration,"[3]; Study LATT-1, 100 mg/kg, solution, pretreatment 1 day, not fasted",652 ng/mL
same,Mean Serum Gallium Concentration,"[3]; Study LATT-2, 100 mg/kg, 1% MC suspension, pretreatment 1 day, fasted",1350 ng/mL
same,Mean Serum Gallium Concentration,"[3]; Study LATT-2, 300 mg/kg, 1% MC suspension, pretreatment 1 day, fasted",3470 ng/mL
same,Mean Serum Gallium Concentration,"[3]; Study LATT-2, 300 mg/kg, 1% MC suspension, pretreatment 7 days, fasted",2960 ng/mL
same,inflammation after the first reactivation of arthritis on day 0,[4]; 300 mg/kg oral,slight inhibition
same,"ankle swelling, first reactivation","[4]; 300 mg/kg, day 12",reduced the swelling significantly
same,bone resorption,"[4]; 100, 200 or 300 mg/kg po qd",Significant dose dependent anti-inflammatory effects
same,cartilage (damage),"[4]; 100, 200 or 300 mg/kg po qd",Significant dose dependent anti-inflammatory effects
same,histological inflammation scores,"[4]; 100, 200 or 300 mg/kg po qd",dose-related inhibition
same,pannus,"[4]; 100, 200 or 300 mg/kg po qd",dose-related effect; also recorded: Significant dose dependent anti-inflammatory effects
same,periosteal proliferation,"[4]; 100, 200 or 300 mg/kg po qd",dose-related effect; also recorded: Significant dose dependent anti-inflammatory effects
same,paw weights after the second reactivation,"[4]; 100, 200 or 300 mg/kg po qd, all treated groups",decreased
same,"inhibition of the sum of the scores for inflammation, pannus, cartilage damage and bone damage (joint histopathology)","[4]; 100, 200 or 300 mg/kg po qd, dose responsive",20-45%
same,"ankle swelling after the second reactivation (flare-up, day 14)","[4]; gallium maltolate 100, 200 or 300 mg/kg po qd, Cyclosporin A 5-20 mg/kg",decreased ankle swelling
same,"peak effect on ankle swelling, time after the flare-up",[4]; second reactivation on day 14,≤ 6 days
same,start of decreased ankle swelling after the flare-up,[4]; second reactivation on day 14,≤ 2 days
same,safety / signs of toxicity,"[5]; 100 or 300 mg/kg daily oral gavage in 1% methyl cellulose, 14 days, Lewis rats",safe and showed no signs of toxicity; also recorded: safe with no signs of toxicity
same,bone resorption scores,[5]; [6],significant reduction
same,liver and spleen hypertrophy (weights),[5]; [6],dose-related decrease; also recorded: marked reduction
same,effect on body weight (arthritis-induced body weight loss),"[5]; gallium maltolate 100 or 300 mg/kg, dexamethasone 0.1 mg/kg, daily oral",favorable effect
same,"ankle (joint) inflammation, clinical and histological","[5]; gallium maltolate 100 or 300 mg/kg, dexamethasone 0.1 mg/kg, daily oral, vs disease control",reduced ankle inflammation; also recorded: significant reduction; also recorded: Significant dose dependent protection
same,spleen histopathology: atrophy of the lymphoid tissue,[5]; oral gallium maltolate,prevented atrophy
same,spleen histopathology: inflammation in the spleen,[5]; oral gallium maltolate,significantly reduced inflammation
